Laboratory results: US20170226507A1, “COORDINATE CONTROL OF PATHOGENIC SIGNALING BY THE MIR-130/301 FAMILY IN PULMONARY HYPERTENSION AND FIBROPROLIFERATIVE DISEASES” (The Brigham and Women's Hospital, Inc., priority 2014, published 2017)
“Also recorded” adds a separate entry of the source.

Experiments:
Type in all cases: cell-based, human
[1] = tested on: miR-130/301 family; assay: RT-qPCR of miR-130/301 family members after transfection of oligonucleotide inhibitors (specificity), PASMCs; details: normoxia and hypoxia
From the text: (§1) FIGS. 14A-14C show the comparison of the specificity of miR-130/301 oligonucleotide inhibitors. (FIG. 14A) Overview of the miRNA silencing approach using seed-targeting tiny locked nucleic acid (LNA) molecules. Tiny LNAs were designed as fully LNA-modified oligonucleotides complementary to the seed region of the miR-130/301 family. The high binding affinity of tiny LNA enables functional inhibition of co-expressed members of miRNA seed families, which leads to de-repression of target mRNAs. Sequences shown in FIG. 14A are miR-130a (SEQ ID NO: 4), miR-130b (SEQ ID NO: 5), miR-301a (SEQ ID NO: 6), miR-301b (SEQ ID NO: 7) and tiny-LNA-130 ([…] SEQ ID NO: 3). […] In the setting of exposure to hypoxia (0.2% O2; 24 h) or normoxia (21% O2; 24 h), expression levels of miR-130/301 family members in PAECs (FIG. 14B) and PASMCs (FIG. 14C) were quantified after transfection with anti-miR-130a versus control (anti-miR-NC) (left panels) or tiny-LNA-130 versus control (tiny-LNA-NC) (right panels). […]
(§2) Cells were homogenized in 2 ml of QiaZol reagent (Qiagen). […] Total RNA concentration was determined using a ND-1000 micro-spectrophotometer (NanoDrop Technologies).
(§3) Mature miRNA expression was evaluated using TaqMan MicroRNA Assays (Life Technologies/Applied Biosystems) and the Applied Biosystems 7900HT Fast Real Time PCR device (Life Technologies/Applied Biosystems). […]

[2] = tested on: miR-130/301 family; assay: RT-qPCR of miR-130/301 family members after transfection of oligonucleotide inhibitors (specificity), PAECs; details: normoxia and hypoxia
From the text: as §1, §2, §3

[3] = tested on: PASMCs; assay: Gene/miRNA expression in transfected or drug-treated PASMCs (immunoblotting, RT-qPCR)
From the text: Pre-miRNA oligonucleotides (pre-miR-130a, pre-miR-204, pre-miR-424, and pre-miR-503 and negative control pre-miR-NC1 and premiR-NC2, Life Technologies), anti-miRNAs oligonucleotides (anti-miR-130a and anti-miR-NC, ThermoScientific), tiny LNA oligonucleotides (tiny-130: 5′-[…]-3′ (SEQ ID NO: 3), and tiny-NC 5′-[…]-3′ (SEQ ID NO: 51), Exiqon), siRNAs (PPARγ and scrambled control, Santa Cruz Biotechnology; HIF-1α, HIF-2α, and scrambled control, Life Technologies) were commercially purchased. PAECs and PASMCs were plated and transfected 24 h later at 70-80% confluence using pre-miRNA (5 nM), anti-miRNA (20 nM), tiny-LNA (20 nM) or siRNA (25 nM) with Lipofectamine 2000 reagent (Life Technologies), according to the manufacturers' instructions.
Primary human pulmonary arterial endothelial cells (PAECs) were purchased and propagated in EGM-2 cell culture media (Lonza). Experiments were performed at passages 3 to 6. Primary human pulmonary arterial smooth muscle cells (PASMCs) were purchased and propagated in SmGM-2 cell culture media (Lonza). Experiments were performed at passages 3 to 9. HEK293T cells (American Type Culture Collection) were used and cultivated in DMEM containing 10% fetal bovine serum (FBS). Cells were cultured at 37° C. in a humidified 5% CO2 atmosphere. A modular hypoxia chamber at 0.2% oxygen, 94.8% nitrogen and 5% carbon dioxide was used during 24 h for hypoxic conditions. Cultured cells were exposed to recombinant human IL-1α at 10 ng·mL-1 (Peprotech). Recombinant human IL-6 (Peprotech) was used at 100 ng·mL-1. Rosiglitazone (Sigma) was used at 10 μM.
Mature miRNA expression was evaluated using TaqMan MicroRNA Assays (Life Technologies/Applied Biosystems) and the Applied Biosystems 7900HT Fast Real Time PCR device (Life Technologies/Applied Biosystems). Expression levels were normalized to RNU48 or snoR55 for human or mouse experiments, respectively, and calculated using the comparative Ct method (2^−ΔΔCt) as we previously described (1).
Messenger RNAs were reverse transcribed using the Multiscript RT kit (Life Technologies) to generate cDNA. cDNA was amplified via fluorescently labeled Taqman primer sets using an Applied Biosystems 7900HT Fast Real Time PCR device, as we previously described (1). Fold-change of RNA species was calculated using the formula (2^−ΔΔCt), normalized to actin expression.
Cells were lysed in RIPA buffer (Santa Cruz Biotechnology) and the protein concentration determined using a Bradford assay (Biorad). Protein lysate ([…]) were resolved by SDS-PAGE and transferred onto a PVDF membrane (Biorad). Membranes were blocked in 5% non-fat milk in TN buffer (50 mM Tris-HCl pH 7.4, 150 mM NaCl) and incubated in the presence of the primary and then secondary antibodies. After washing in TN buffer containing 0.1% Tween, immunoreactive bands were visualized with the ECL system (Amersham Biosciences). […] Primary antibodies for STAT3 (#9139) and P-STAT3 (Tyr-705; #9145) were purchased from Cell Signaling. Primary antibodies against actin (ab 3280), α-smooth-muscle-actin (ab 32575), CD31 (ab28364), and PCNA (ab 29) were obtained from Abcam. Appropriate secondary antibodies (anti-rabbit and anti-mouse) coupled to HRP were used (Santa Cruz Biotechnology).

[4] = tested on: endothelin-1; assay: Quantification of endothelin-1 by ELISA in conditioned media of PAECs; details: mimic: normoxia and hypoxia, inhibitors: hypoxia 0.2% O2
Procedure: Twenty-four hours after transfection PAECs were washed in PBS, and medium was replaced by media without serum. Twenty-four hour later conditioned media from PAEC transfected as indicated were collected and endothelin-1 was measured by ELISA kit (Enzo biosciences) according to the manufacturer's protocol. Human plasma sample (see below) and mouse plasma were also tested for endothelin-1 level by ELISA.

tiny-LNA-130: fully LNA-modified tiny LNA oligonucleotide 5′-ATTGCACT-3′ (SEQ ID NO: 3) complementary to the seed region of the miR-130/301 family (all LNA, backbone and methylation of C not given here)
expression of all miR-130/301 family members [1]: down-regulated; also recorded: effective inhibitors of the entire miR-130/301 family | expression of all miR-130/301 family members [2]: down-regulated; also recorded: effective inhibitors of the entire miR-130/301 family | downstream gene/subordinate miRNA alterations (PPARγ, STAT3, P-STAT3, miR-204) ([3]; normoxia or hypoxia, compared with anti-miR-130a): reversed such downstream gene/subordinate miRNA alterations to a greater extent than inhibition of miR-130a alone | collagen, CTGF, and LOX ([3]; tiny-LNA-130: stiffness-mediated up-regulation): reversed | CCND1 expression ([3]; transcripts): decreased | CDKN1A, CDKN1B and CDKN2A expression ([3]; transcripts): increased | NFATC2 and PIM1 expression ([3]; transcripts 48 h after transfection): decreased | mature endothelin-1 in conditioned media [4]: decreased endothelin-1 expression to a greater extent than inhibition of miR-130a alone
